Source: US20260167620A1, “MULTIFUNCTIONAL COMPOUND CAPABLE OF DEGRADING BTK KINASE, AND COMPOSITION AND USE” (HANGZHOU HEALZEN THERAPEUTICS CO., LTD., priority 2021, published 2026)

Legend:
BTK = molecular target: T1, BTK (Homo sapiens, UniProt Q06187); assay: BTK degradation activity test in Mino cells (Westernblot or Elisa); format: cell-based; settings: 24-72 h incubation
T1 construct: endogenous in cells; host or cells: Mino cells
Method: The Mino cell line cells are 0.5˜1 million/well in 6-well plates. The compounds are diluted to different concentrations, added to the plate, and after 24-72 h of incubation, the cells are collected. After the cells were lysed, the total protein concentration in each well was determined with a BCA kit. The amount of BTK is determined using the Westernblot or Elisa method.

Mino cells = assay: Inhibitory activity on Mino cell proliferation (MTS); format: cell-based; settings: Homo sapiens, 72 h or 168 h
Outline: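 OCI-LY10 and Mino cells seeded at 10000 cells/well overnight, then exposed to compound (from 1000 nM, 4-fold, 8 points) for 72 h or 168 h at 37° C. Viability by MTS, 2 h, absorbance at 490 and 650 nm; IC50 from the dose-response curve.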

[1] = Liver microsomal metabolic stability, human; format: in vitro ADME; settings: human liver microsomes, NADPH, 37° C.
Method: (§1) Under the condition of ice bath, 1 mg of human or Mouse liver microparticles was add to PBS (1 mL) buffer, then NADPH (20 μL) was added, and incubated at 37° C. for 5 min. 10 μL of the compound to be tested was added, then suck several times with a pipette and divide into 3 aliquots of 330 μL; each and then samples were taken at 0, 15, 30, 60 and 120 min respectively. 10 μL of the solution was taken with a pipette each time and added to 490 μL of the solution containing the internal standard compound. The resulting solution was vortexed and then placed on ice, and then sampling at another time point continues. All samples were centrifuged at 10,000 rpm for 10 min, and the supernatant was taken for LC/MS testing. The metabolism of the compound in liver microsomes was calculated based on the peak area.

[2] = Liver microsomal metabolic stability, mouse; format: in vitro ADME; settings: mouse liver microsomes, NADPH, 37° C.
Method: as §1

Mouse absorption test = format: in vivo; settings: mice, intragastric 10 mg/kg, plasma
Method: (§2) Experimental method: mice were used as experimental animals, and drugs were administered intragastrically at 10 mg/kg (5% DMSO+5% Solutol+90% saline). The blood collection time points for intragastric administration were 0.25, 0.5, 1, 2, 4, 6, 8, and 24 h. 0.3 ml of whole blood was taken, and 0.1 ml of plasma was taken after centrifugation and analyzed by LC-MS.

Rat absorption test = format: in vivo; settings: SD rats, intragastric 10 mg/kg, plasma
Method: as §2, with “SD Rats” for “Experimental method: mice”, “Solutol+90% normal” for “Solutol+90%”

T1 sequence (Q06187 whole entry): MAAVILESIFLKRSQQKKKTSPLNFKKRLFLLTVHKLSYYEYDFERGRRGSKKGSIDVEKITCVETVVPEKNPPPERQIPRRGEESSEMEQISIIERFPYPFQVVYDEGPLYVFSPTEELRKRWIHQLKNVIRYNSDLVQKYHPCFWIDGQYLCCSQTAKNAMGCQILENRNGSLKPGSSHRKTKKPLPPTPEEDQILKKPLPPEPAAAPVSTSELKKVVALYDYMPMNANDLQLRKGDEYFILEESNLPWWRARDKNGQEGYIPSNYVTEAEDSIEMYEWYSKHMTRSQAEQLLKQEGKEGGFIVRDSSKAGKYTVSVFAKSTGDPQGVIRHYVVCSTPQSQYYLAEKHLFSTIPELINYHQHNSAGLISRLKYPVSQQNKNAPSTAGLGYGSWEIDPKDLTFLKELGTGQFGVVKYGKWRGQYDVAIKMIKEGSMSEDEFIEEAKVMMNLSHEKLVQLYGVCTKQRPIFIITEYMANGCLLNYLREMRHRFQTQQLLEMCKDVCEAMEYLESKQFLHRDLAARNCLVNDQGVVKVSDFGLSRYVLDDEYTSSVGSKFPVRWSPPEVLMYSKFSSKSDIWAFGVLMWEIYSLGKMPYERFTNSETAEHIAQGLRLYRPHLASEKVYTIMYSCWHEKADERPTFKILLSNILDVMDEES

DC50 (BTK): < 10 nM | Thalf (min) Human [1]: 38 min | Thalf (min) Mouse [2]: 120 min | DNAUC (Mouse absorption test): 1686 AUC (h*ng/mL)/dose (mg/kg) | DNAUC (Rat absorption test): 716 AUC (h*ng/mL)/dose (mg/kg)
Structure (SMILES): NC(=O)c1nnc(N2CCCCC2)nc1Nc1ccc(N2CCC(CN3CCN(c4cc5c(cc4F)C(=O)N(C4CCC(=O)NC4=O)C5=O)CC3)CC2)c(F)c1 (stereo not drawn) [Compound 045, 5-((4-(4-((4-(2-(2,6-dioxopiperidin-3-yl)-6-fluoro-1,3-dioxoisoindolin-5-yl)piperazin-1-yl)methyl)piperidin-1-yl)-3-fluorophenyl)amino)-3-(piperidin-1-yl)-1,2,4-triazine-6-carboxamide]
IC50 (Mino cells): 3.91 nM
